Experimental data from paper PMC7053292 (Research in Pharmaceutical Sciences, 2020).
Read-outs that look alike come from different tables or passages of the source. Marks after values point to notes of the source that are not given here. Values belong to the molecule of their own block, whether it stands above or below them.

Key:
[1] = molecular target: T1, α-glucosidase from Saccharomyces cerevisiae (Saccharomyces cerevisiae, UniProt P53341); test: α-Glucosidase assay; type: biochemical; conditions: for inhibition percentage lower than standard inhibitor acarbose on α-glucosidase: ratio of inhibition percentages, acarbose vs sample; for inhibition at 20 µM: read-out: Inhibition at 0.02 mM (%) α-Glucosidase
T1 sequence (P53341 whole entry): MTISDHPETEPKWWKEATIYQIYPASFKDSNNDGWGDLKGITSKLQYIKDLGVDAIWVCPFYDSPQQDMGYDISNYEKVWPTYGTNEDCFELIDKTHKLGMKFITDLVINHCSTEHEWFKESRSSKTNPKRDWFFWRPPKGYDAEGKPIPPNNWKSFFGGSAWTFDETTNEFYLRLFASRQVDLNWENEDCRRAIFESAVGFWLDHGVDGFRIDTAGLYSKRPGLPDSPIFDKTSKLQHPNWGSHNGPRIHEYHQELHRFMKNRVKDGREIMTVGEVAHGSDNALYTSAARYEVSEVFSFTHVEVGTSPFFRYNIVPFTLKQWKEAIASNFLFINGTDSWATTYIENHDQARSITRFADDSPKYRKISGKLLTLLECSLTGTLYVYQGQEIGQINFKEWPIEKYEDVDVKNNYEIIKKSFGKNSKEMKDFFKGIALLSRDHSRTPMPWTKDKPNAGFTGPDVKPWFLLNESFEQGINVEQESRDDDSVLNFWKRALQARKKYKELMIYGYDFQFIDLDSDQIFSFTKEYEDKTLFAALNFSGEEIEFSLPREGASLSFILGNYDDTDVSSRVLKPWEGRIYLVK

[2] = molecular target: T2, α-amylase from Aspergillus oryzae (Aspergillus oryzae, UniProt P0C1B3); test: Kinetic study on α-amylase; type: biochemical; conditions: for α-Amylase inhibition type: Lineweaver-Burk and Dixon plots; for Ki: substrate amylose
DPPH assay = conditions: mean ± SD, n = 3; for Inhibitory activity at 0.5 mM (%): DPPH; for IC50: read-out: IC50 (DPPH free radical scavenging)
[3] = molecular target: T1, α-glucosidase from Saccharomyces cerevisiae; test: Kinetic study on α-glucosidase; type: biochemical; conditions: for α-Glucosidase inhibition type: Lineweaver-Burk and Dixon plots; for Ki: α-Glucosidase Ki, from slope (Km/Vmax) vs [I], substrate 4-pNPG, free enzyme
[4] = molecular target: T2, α-amylase from Aspergillus oryzae; test: biochemical; conditions: for inhibition percentage lower than standard inhibitor acarbose on α-amylase: ratio of inhibition percentages, acarbose vs sample; for inhibition at 20 µM: read-out: Inhibition at 0.02 mM (%) α-Amylase
[5] = α-Amylase Ki, from slope (Km/Vmax) vs [I], free enzyme
[6] = α-Amylase Ki´, from 1/Vmax vs [I], enzyme-substrate complex
[7] = IC50 values (mM) α-Amylase, mean ± SD, n = 3

Structure (SMILES): CC(=O)C1CCCN1S(=O)(=O)c1ccc(C)cc1 (stereo not shown) [4b, N-(tosyl)-2-acetylpyrrolidine]
IC50 [1]: 1640 ± 80 µM
inhibition percentage lower than standard inhibitor acarbose on α-glucosidase [1]: approximately 2.21 times
inhibition at 20 µM [1]: 32.31 ± 0.29%
α-Amylase inhibition type [2]: Mixed type
Ki [2, 5]: 270 µM
Ki [2, 6]: 710 µM
Inhibitory activity at 0.5 mM (%) (DPPH assay): 34.28 ± 0.73^b %
IC50 (DPPH assay): 1820 ± 48 µM
α-Glucosidase inhibition type [3]: Mixed type
Ki [3]: 230 µM
IC50 [4]: 2.72 ± 0.09 mM
IC50 [4, 7]: 3.21 ± 0.65 mM
inhibition percentage lower than standard inhibitor acarbose on α-amylase [4]: ~2.13 times
inhibition at 20 µM [4]: 30.1 ± 0.78%

Structure (SMILES): CC(=O)C1CCCN1Cc1ccccc1 (stereo not shown) [4a, N-(benzyl)-2-acetylpyrrolidine]
IC50 [1]: 520 ± 20 µM
inhibition percentage lower than standard inhibitor acarbose on α-glucosidase [1]: approximately 2.21 times
inhibition at 20 µM [1]: 40.3 ± 0.8%
α-Amylase inhibition type [2]: Mixed type
Ki [2, 5]: 230 µM
Ki [2, 6]: 2350 µM
Inhibitory activity at 0.5 mM (%) (DPPH assay): 41.62 ± 0.64^a %
IC50 (DPPH assay): 1010 ± 10 µM
α-Glucosidase inhibition type [3]: Mixed type
Ki [3]: 290 µM
IC50 [4]: 3.21 ± 0.65 mM
less potential on α-amylase than 4a on α-glucosidase (IC50 ratio) ([4]; IC50 on α-amylase vs IC50 of 4a on α-glucosidase): ~6.2 times
less potential on α-amylase than 4b on α-amylase (IC50 ratio) ([4]; IC50 on α-amylase vs IC50 of 4b on α-amylase): approximately 1.20 times
less potential on α-amylase than 4b on α-glucosidase (IC50 ratio) ([4]; IC50 on α-amylase vs IC50 of 4b on α-glucosidase): approximately 2.0 times
IC50 [4, 7]: 2.72 ± 0.09 mM
inhibition percentage lower than standard inhibitor acarbose on α-amylase [4]: ~2.13 times
inhibition at 20 µM [4]: 28.9 ± 0.57%

α-Amylase inhibition type [2]: Mixed type
α-Glucosidase inhibition type [3]: Mixed type
inhibition at 20 µM [4]: 61.7 ± 1.14%
Structure (SMILES): C[C@H]1O[C@H](O[C@H]2[C@H](O)[C@@H](O)[C@@H](O[C@H]3[C@H](O)[C@@H](O)C(O)O[C@@H]3CO)O[C@@H]2CO)[C@H](O)[C@@H](O)[C@@H]1N[C@H]1C=C(CO)[C@@H](O)[C@H](O)[C@H]1O (stereo partly shown) [Acarbose, acarbose, reference compound]
